Measured values reported in patent publication US20110224297A1, “Methods of administering prostratin and structural analogs thereof” (priority 2008, published 2011).
Like-named read-outs stand apart in the source and are kept apart here.

Key:
[1] = Pharmacokinetics following intravenous and oral administration to rats; assay type: in vivo; settings: for Vd / half-life / bioavailability: male; for bioavailability: three male rats
Procedure: In order to find out the best route of administration and the correct concentration of prostratin, the drug was administered as an intravenous infusion over three hours as well as a single and twice oral administration to 3 groups of rats. The goal of this experiment was to find out if greater amounts of prostratin can be administered over a longer period of time. This would enable obtaining median higher concentrations in the blood for a longer period of time that would be close to effective concentration found in in vitro studies.

[2] = tested on: latently infected U1 cells; experiment: HIV expression (reverse transcriptase activity in supernatant) in latently infected U1 cells; assay type: cell-based
Procedure: The effect of prostratin on virus replication was assessed in latently infected ACH-2 and U1 cells by measuring the accumulation of reverse transcriptase activity in the supernatant of stimulated cells (Gustafson et al., 1992, J Med Chem 35(11): 1978-86).
Briefly, 4×10^4 cells in 100 μl fresh medium were mixed with another 100 μl of medium with or without prostratin or PMA in a 96-well microtiter plate. Plates were incubated for 24-72 h at 37° C. Following incubation, supernatants were harvested, centrifuged (to remove any residual cells) and tested for reverse transcriptase activity as previously described (Gustafson et al., 1992, J Med Chem 35(11): 1978-86).
In these experiments, two concentrations of cells were tested (40,000 and 100,000 cells/well). It is noteworthy that the basal levels of reverse transcriptase activities were much higher in ACH-2 cells than in U1 cells.

[3] = all three females, 1.2-mg/kg oral dose, males 2.4 mg/kg
[4] = female Animal No. C24047, 0.8 mg/kg i.v. infusion
[5] = female Animal No. C24048, 0.8 mg/kg i.v. infusion
[6] = female Animal No. C24049, 0.8 mg/kg i.v. infusion
[7] = female Animal No. C24050, 1.2-mg/kg oral dose, males 2.4 mg/kg
[8] = female Animal No. C24055, Group 3

SMILES: CC(=O)O[C@@]12C[C@@H](C)[C@@]3(O)[C@@H](C=C(CO)C[C@]4(O)C(=O)C(C)=C[C@@H]34)[C@@H]1C2(C)C [prostratin, 12-deoxyphorbol 13-acetate]
- mean AUC0-1.5 relative to mean value for the males [1, 3]: ~5.5 fold
- mean Cmax relative to mean value for the males [1, 3]: approximately 6.2 fold
- AUC0-2 relative to mean AUC0-2 for the males [1, 4]: approximately 4.2 fold
- plasma concentration at approximately 2 hours relative to mean male Cmax [1, 4]: approximately 3.8 fold
- AUC0-2 relative to mean AUC0-2 for the males [1, 5]: approximately 1.4 fold
- plasma concentration at approximately 2 hours relative to mean male Cmax [1, 5]: approximately 1.6 fold
- AUC0-3.083 relative to mean value for the males [1, 6]: ~2.6 fold
- Cmax relative to mean value for the males [1, 6]: approximately 3.7 fold
- AUC0-1.5 relative to mean value for the males [1, 7]: ~8.2 fold
- Cmax relative to mean value for the males [1, 7]: approximately 8.9 fold
- AUC0-4 relative to mean value for the males ([1]; female Animal No. C24052, 1.2-mg/kg oral dose, males 2.4 mg/kg): approximately 9.6 fold
- Cmax relative to mean value for the three males ([1]; female Animal No. C24055, 1.8 mg/kg then 1.0 mg/kg oral, Group 3): approximately 6.0 fold
- AUC0-1.5 relative to mean value for the three males [1, 8]: ~5.9 fold
- AUC0-4 relative to mean value for the three males [1, 8]: ~8.2 fold
- AUC0-10 relative to mean AUC0-10 for the males ([1]; last female of Group 2, 1.2-mg/kg oral dose, males 2.4 mg/kg): approximately 6.1 fold
- increase in exposure (mean AUC0-10) of 1.8-mg/kg BID versus single 2.4-mg/kg oral dose ([1]; male rats, Groups 3 and 2): approximately 1.5 fold
- Vd ([1]; rat, plasma, iv, 0.8 mg/kg, male rats, 0.8 mg/kg i.v. infusion, read-out: mean Vss): 2.22 L/kg
- Vd ([1]; rat, plasma, iv, 0.8 mg/kg, male rats, 0.8 mg/kg i.v. infusion, read-out: mean Vz): 6.41 L/kg
- half-life ([1]; rat, plasma, iv, 0.8 mg/kg, male rats, after 3-hour intravenous infusion 0.8 mg/kg, read-out: mean t1/2 (converted)): 2.49 h
- half-life ([1]; rat, plasma, po, 1.8 mg/kg, male Animal No. C24046, Group 3, 1.8 mg/kg BID oral, read-out: t1/2 (converted)): 7.47 h
- half-life ([1]; rat, plasma, po, 1.8 mg/kg, male rats, 1.8 mg/kg BID oral, after the second dose, read-out: mean t1/2 (converted)): 4.07 h
- half-life ([1]; rat, plasma, po, 2.4 mg/kg, male rats, single 2.4-mg/kg oral dose, read-out: mean t1/2 (converted)): 2.08 h
- bioavailability ([1]; rat, plasma, po, 2.4 mg/kg, single 2.4-mg/kg oral dose, read-out: Bioavailability (% F), mean): 13.3%
- bioavailability ([1]; rat, plasma, po, 2.4 mg/kg, single 2.4-mg/kg oral dose, read-out: Bioavailability (% F), range): 7.7 to 23.1%
- clearance ([1]; rat, plasma, iv, male rats, 0.8 mg/kg i.v. infusion, read-out: mean CL (converted)): 34.2 mL/min/kg
- concentration at 4 h ([1]; rat, plasma, male rats, 1.8 mg/kg oral, Group 3, read-out: mean plasma concentration just prior to the second oral dose at 4 hours): 17.9 ng/mL
- Cmax ([1]; rat, plasma, male rats, 0.8-mg/kg intravenous infusion over 3 hours): 159 ng/mL
- Cmax ([1]; rat, plasma, male rats, 1.8-mg/kg oral doses BID, following the second dose): 55.1 ng/mL
- Tmax ([1]; rat, plasma, male rats, 1.8-mg/kg oral doses BID, read-out: time at which Cmax was observed): 0.25 to 0.5 h
- Cmax ([1]; rat, plasma, male rats, single 2.4-mg/kg oral dose): 49.7 ng/mL
- concentration at 4 h ([1]; rat, plasma, male rats, single 2.4-mg/kg oral dose, Group 2, read-out: mean plasma concentration at 4 hours postdose): 11.5 ng/mL
- exposure time needed to observe acceptable reverse transcriptase activity [2]: at least 48 h
- lowest dose to get a reliable increase in reverse transcriptase activity [2]: 50 ng/mL
- short incubation (pulsed stimulation) time leading to detectable reverse transcriptase activity ([2]; none after 1 h and 4 h): 6 h
